Test results as given in patent US9796733B2, “Imidazo-pyrazine derivatives useful as soluble guanylate cyclase activators” (Merck Sharp & Dohme Corp., priority 2014, dated 2017).

Biological target: T1, sGC α1/β1 heterodimer (Homo sapiens, UniProt Q02108+Q02153)
T1 construct: expressed in transfected cells; host or cells: CHO-K1 (clone #7, CHO-K1/sGC)
T1 sequence (Q02108 1-690): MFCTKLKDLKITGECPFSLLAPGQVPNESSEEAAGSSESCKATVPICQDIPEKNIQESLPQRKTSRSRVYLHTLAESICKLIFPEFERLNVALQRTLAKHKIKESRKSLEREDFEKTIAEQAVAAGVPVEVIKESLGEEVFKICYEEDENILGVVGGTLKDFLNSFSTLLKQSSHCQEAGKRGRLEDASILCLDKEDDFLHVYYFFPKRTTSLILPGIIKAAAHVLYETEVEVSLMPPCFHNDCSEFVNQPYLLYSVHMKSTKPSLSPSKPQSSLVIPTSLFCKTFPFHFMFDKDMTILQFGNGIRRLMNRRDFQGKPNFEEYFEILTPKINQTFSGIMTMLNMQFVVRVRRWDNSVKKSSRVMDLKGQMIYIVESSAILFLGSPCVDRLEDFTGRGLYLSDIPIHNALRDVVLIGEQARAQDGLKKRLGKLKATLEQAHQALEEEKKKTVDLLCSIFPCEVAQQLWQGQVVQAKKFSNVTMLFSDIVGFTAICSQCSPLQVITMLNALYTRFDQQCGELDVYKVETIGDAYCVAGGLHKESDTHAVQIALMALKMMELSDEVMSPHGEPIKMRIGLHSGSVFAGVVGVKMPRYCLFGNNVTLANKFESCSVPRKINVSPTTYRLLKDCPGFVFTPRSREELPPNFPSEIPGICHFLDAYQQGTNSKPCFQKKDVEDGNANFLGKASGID
T1 sequence (Q02153 1-619): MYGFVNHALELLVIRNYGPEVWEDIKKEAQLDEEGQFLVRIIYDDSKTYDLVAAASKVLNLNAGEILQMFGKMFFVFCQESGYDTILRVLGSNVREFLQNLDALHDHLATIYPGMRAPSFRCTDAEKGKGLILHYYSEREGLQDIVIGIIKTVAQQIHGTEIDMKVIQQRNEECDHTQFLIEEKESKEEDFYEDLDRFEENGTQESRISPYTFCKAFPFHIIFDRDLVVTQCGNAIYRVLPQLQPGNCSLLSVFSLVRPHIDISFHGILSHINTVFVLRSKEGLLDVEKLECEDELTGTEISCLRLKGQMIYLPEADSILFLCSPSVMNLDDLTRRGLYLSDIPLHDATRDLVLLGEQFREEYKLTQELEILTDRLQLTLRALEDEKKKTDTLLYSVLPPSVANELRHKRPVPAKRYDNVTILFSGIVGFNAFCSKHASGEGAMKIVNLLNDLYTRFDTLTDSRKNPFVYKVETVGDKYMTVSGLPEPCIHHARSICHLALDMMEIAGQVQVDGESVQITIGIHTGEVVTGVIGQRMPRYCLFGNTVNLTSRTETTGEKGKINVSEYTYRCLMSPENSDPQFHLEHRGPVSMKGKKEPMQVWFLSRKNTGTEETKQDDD
Assay: Cell-based sGC functional assay (CASA assay): cGMP generation in CHO-K1/sGC cells, HTRF detection
Details: for Emax: CHO-K1, percent activation relative to standard Compound A in CHO-K1/sGC cells, read-out: % Act.; for EC50: inflection point (IP) of cGMP generation in CHO-K1/sGC cells, 4P fit, activity expressed as percentage of Compound A
Excerpt: Biological Assay 1: Cell-Based sGC Functional Assay (CASA Assay)
sGC is a heme-containing enzyme that converts GTP to secondary messenger cGMP. Increases in cGMP levels affect several physiological processes including vasorelaxation through multiple downstream pathways. […] Heme-dependent activators (HDAs) preferentially activate sGC containing a ferrous heme group. To determine the effect of sGC activators on enzyme activity, the CASA assay was developed to monitor the generation of cGMP in a cell line that stably expresses the heterodimeric sGC protein.
A CHO-K1 cell line stably expressing the sGC α1/β1 heterodimer was generated using a standard transfection protocol. CHO-K1 cells were transfected with plasmids pIREShyghsGCal and pIRESneo-hsGCβ1 simultaneously using FUGENE reagent. Clones that stably express both subunits were selected with hygromycin and neomycin for 2 weeks. Clone #7 was chosen for the assay and was designated CHO-K1/sGC. CHO-K1/sGC cells were maintained in F-K12 medium containing 10% heat-inactivated Fetal Bovine Serum (FBS), 100 μg/mL penicillin/streptomycin, 0.5 mg/mL hygromycin and 0.25 mg/mL G418. The cells were then cryopreserved in LN2. On the day of the assay, cells thawed and resuspended in EBSS Assay Buffer (Sigma, E3024) supplemented with 5 mM MgCl2, 10 mM HEPES (4-(2-hydroxyethyl)piperazine-1-ethanesulfonic acid) and 0.05% BSA (bovine serum albumin) (EAB) and cell density was then adjusted to 4×10^5/mL with EAR IBMX (3-isobutyl-1-methylxanthin, 0.5 mM) was added to inhibit degradation of cGMP. Compounds were diluted from DMSO stock solutions and added to the assay at a final DMSO concentration of 2.5%. Cells were incubated with compounds in the presence and absence of 1 μM of Diethylenetriamine/nitric oxide adduct (DETA-NO; Sigma, 17018) for 1 hr at 37° C. At the end of the incubation period, the reaction was terminated and the cells were lysed with the detection reagents from Cisbio Kits. The level of intracellular cGMP was determined using an HTRF-based assay kit (CisBio, 62GM2PEC), which detects the displacement of a fluorescence labeled cGMP from its specific antibody. The cGMP produced by test compounds was directly compared to the maximum cGMP production (this value was set to equal 100% activation.) of the published sGC-HDA Compound A:
[drawing 597] (Example 1 in WO 2010/065275, published Jun. 10, 2010). The test compounds' activities were then expressed as a percentage of Compound A, the standard in every experiment. This percent activation was calculated either in the presence or absence of DETA-NO which was then plotted. IP and maximum fold induction was derived using ADA analysis software for 4P fit.
The compounds in the Examples of the instant invention had inflection points (IP) less than or equal to 10 μM and more particularly less than or equal to about 1 μM.

SMILES	Emax	EC50
CC1(c2ccc(Cl)cc2)C(=O)Nc2nc(-c3cn4ccnc4cn3)nc(N3CC(C(F)(F)F)C3)c21 (stereo not drawn) [Example 282A, 5-(4-chlorophenyl)-2-(imidazo[1,2-a]pyrazin-6-yl)-5-methyl-4-(3-(trifluromethyl)azetidin-1-yl)-5H-pyrrolo[2,3-d]pyrimidin-6(7H)-one]	153%	197 nM
CC1(C)C(=O)Nc2nc(-c3cn4c(Cl)cnc4c(CCC(F)(F)C(F)(F)F)n3)nc(N)c21 [Example 257, 4-amino-2-(3-chloro-8-(3,3,4,4,4-pentafluorobutyl)imidazo [1,2-a]pyrazin-6-yl)-5,5-dimethyl-5H-pyrrolo[2,3-d]pyrimidin-6(7H)-one]	146%	614 nM
Nc1nc(-c2cn3cc(C(F)(F)F)nc3c(Cc3ccccc3F)n2)nc2c1C(C(=O)NC1CC1)(C1CC1)C(=O)N2 (single isomer, unassigned) [Example 45B, 4-amino-N,5-dicyclopropyl-2-(8-(2-fluorobenzyl)-2-(trifluoromethyl)imidazo[1,2-a]pyrazin-6-yl)-6-oxo-6,7-dihydro-5H-pyrrolo[2,3-d]pyrimidine-5-carboxamide]	75%	217 nM
CC1(C(=O)NC2CC2)C(=O)Nc2nc(-c3cn4ccnc4c(Cc4cccc(F)c4)n3)nc(N)c21 (single isomer, unassigned) [Example 31A, 4-Amino-N-cyclopropyl-2-(8-(3-fluorobenzyl)imidazo[1,2-a]pyrazin-6-yl)-5-methyl-6-oxo-6,7-dihydro-5H-pyrrolo[2,3-d]pyrimidine-5-carboxamide]	141%	46 nM
CC1(c2ccc(F)cc2)C(=O)Nc2nc(-c3cn4c(Cl)cnc4c(CCC(F)(F)F)n3)nc(N)c21 (stereo not drawn) [Example 258A, 4-amino-2-(3-chloro-8-(3,3,3-trifluoropropyl)imidazo[1,2-a]pyrazin-6-yl)-5-(4-fluorophenyl)-5-methyl-5H-pyrrolo[2,3-d]pyrimidin-6(7H)-one]	116%	89 nM
CC(C)Cc1nc(-c2nc(N)c3c(n2)NC(=O)C3(c2ccc(C(F)(F)F)cn2)C2CC2)cn2ccnc12 (stereo not drawn) [Example 127A, 4-amino-5-cyclopropyl-2-(8-isobutylimidazo[1,2-a]pyrazin-6-yl)-5-(5-(trifluoromethyl)pyridin-2-yl)-5H-pyrrolo[2,3-d]pyrimidin-6(7H)-one]	105%	518 nM
CC1(c2ccc(F)cc2F)C(=O)Nc2nc(-c3cn4ccnc4c(CCC(F)(F)F)n3)nc(N)c21 (stereo not drawn) [Example 180A, 4-amino-5-(2,4-difluorophenyl)-5-methyl-2-(8-(3,3,3-trifluoropropyl)imidazo[1,2-a]pyrazin-6-yl)-5H-pyrrolo[2,3-d]pyrimidin-6(7H)-one]	115%	39 nM
CC1(c2ccc(F)cc2)C(=O)Nc2nc(-c3cn4ccnc4c(CCc4ccccc4F)n3)nc(N)c21 (stereo not drawn) [Example 3A, 4-amino-2-(8-(2-fluorophenethyl)imidazo[1,2-a]pyrazin-6-yl)-5-(4-fluorophenyl)-5-methyl-5H-pyrrolo[2,3-d]pyrimidin-6(7H)-one]	139%	19 nM
Nc1nc(-c2cn3ccnc3c(CCC(F)(F)C(F)(F)F)n2)nc2c1C(c1nnc(C3CC3)s1)(C1CC1)C(=O)N2 (stereo not drawn) [Example 54A, 4-amino-5-cyclopropyl-5-(5-cyclopropyl-1,3,4-thiadiazol-2-yl)-2-(8-(3,3,4,4,4-pentafluorobutyl)imidazo[1,2-a]pyrazin-6-yl)-5H-pyrrolo[2,3-d]pyrimidin-6(7H)-one]	91%	144 nM
Cc1nnc(C2(C)C(=O)Nc3nc(-c4cn5ccnc5c(CCC(F)(F)C(F)(F)F)n4)nc(N)c32)o1 (stereo not drawn) [Example 57A, 4-amino-5-methyl-5-(5-methyl-1,3,4-oxadiazol-2-yl)-2-(8-(3,3,4,4,4-pentafluorobutyl)imidazo[1,2-a]pyrazin-6-yl)-5H-pyrrolo[2,3-d]pyrimidin-6(7H)-one]	101%	920 nM
CC1(c2ccc(F)cc2)C(=O)Nc2nc(-c3cn4c(N)cnc4c(CCC(F)(F)C(F)(F)F)n3)nc(N)c21 (stereo not drawn) [Example 267A, 4-Amino-2-(3-amino-8-(3,3,4,4,4-pentafluorobutyl)imidazo[1,2-a]pyrazin-6-yl)-5-(4-fluorophenyl)-5-methyl-5H-pyrrolo[2,3-d]pyrimidin-6(7H)-one]	91%	212 nM
Nc1nc(-c2cn3cc(C(F)(F)F)nc3c(Cc3ccc(F)cc3)n2)nc2c1C(C(=O)NC1CC1)(C1CC1)C(=O)N2 (stereo not drawn) [Example 50B, 4-amino-N,5-dicyclopropyl-2-(8-(4-fluorobenzyl)-2-(trifluoromethyl)imidazo[1,2-a]pyrazin-6-yl)-6-oxo-6,7-dihydro-5H-pyrrolo[2,3-d]pyrimidine-5-carboxamide]	86%	829 nM
COCCNc1nc(-c2cn3ccnc3c(CCC(F)(F)F)n2)nc2c1C(C)(c1ccc(Cl)cc1)C(=O)N2 (stereo not drawn) [Example 296A, 5-(4-chlorophenyl)-4-((2-methyoxyethyl)amino)-5-methyl-2-(8-(3,3,3-trifluoropropyl)imidazo[1,2-a]pyrazin-6-yl)-5H-pyrrolo[2,3-d]pyrimidin-6(7H)-one]	77%	142 nM
CC1(c2ccc(Cl)cc2)C(=O)Nc2nc(-c3cn4ccnc4cn3)nc(N3CC(F)(C4CC4)C3)c21 (stereo not drawn) [Example 281A, 5-(4-chlorophenyl)-4-(3-cyclopropyl-3-fluoroazetidin-1-yl)-2-(imidazo[1,2-a]pyrazin-6-yl)-5-methyl-5H-pyrrolo[2,3-d]pyrimidin-6(7H)-one]	120%	102 nM
CC1(C(=O)NC2CC2)C(=O)Nc2nc(-c3cn4cc(C(F)(F)F)nc4c(Cc4ccccc4F)n3)nc(N)c21 (stereo not drawn) [Example 47B, 4-amino-N-cyclopropyl-2-(8-(2-fluorobenzyl)-2-(trifluoromethyl)imidazo[1,2-a]pyrazin-6-yl)-5-methyl-6-oxo-6,7-dihydro-5H-pyrrolo[2,3-d]pyrimidine-5-carboxamide]	118%	735 nM
